Literature values in US10201537B2 (INFLAMMATORY RESPONSE RESEARCH, INC., priority 2013, dated 2019).
Like-named read-outs stand apart in the source and are kept apart here.

Assays:
[1] = system: influenza; details: human, in vivo
[2] = system: adult patients
[3] = warfarin, theophylline, digoxin, terfenadine, oral contraceptives, prednisone
[4] = for time to steady state level: montelukast, oral
[5] = system: IL-4, IL-6, and IL-8
[6] = in vivo
[7] = system: histamine induced wheal and flare; details: levocetirizine 5 mg per day vs fexofenadine 180 mg per day
[8] = system: humans
[9] = system: eosinophil migration
[10] = system: granulocyte and macrophage proliferation; details: in vivo

CCOC(=O)C1=C[C@@H](OC(CC)CC)[C@H](NC(C)=O)[C@@H](N)C1 [oseltamivir]
influenza related lower respiratory tract complications [1]: did not appear to reduce influenza related lower respiratory tract complications

CC(C)(O)c1ccccc1CC[C@@H](SCC1(CC(=O)O)CC1)c1cccc(/C=C/c2ccc3ccc(Cl)cc3n2)c1 [Montelukast]
doses without clinically important adverse experiences ([2]; adult patients, 22 weeks): up to 200 mg/day | doses without clinically important adverse experiences ([2]; short-term studies, approximately one week): up to 900 mg/day | drug interactions [3]: no drug interactions | plasma concentration area under the curve profile ([4]; IV montelukast 7 mg vs 10 mg oral tablet): comparable to the approved 10 mg oral montelukast tablet | absorption ([4]; in vivo): rapidly absorbed | linear pharmacokinetics to dose ([4]; in vivo): ≤ 50 mg | time to peak plasma concentration ([4]; in vivo): 3 to 4 h | time to steady state level [4]: less than two days | time to steady state level ([4]; listed as montelukast): within two days | effect of a standard meal on oral bioavailability and Cmax ([4]; standard meal): not affected by a standard meal

O=C(O)COCCN1CCN([C@H](c2ccccc2)c2ccc(Cl)cc2)CC1 [Levocetirizine]
inflammatory mediators IL-4, IL-6, and IL-8 [5]: decrease inflammatory mediators | time to steady state level [6]: 40 h | effectiveness versus fexofenadine [7]: more effective than fexofenadine | principal side effect at higher doses ([8]; higher doses): Sedation | doses safely administered in humans ([8]; in vivo): up to 30 mg/day | eosinophil migration [9]: decrease eosinophil migration

B1: filgrastim (protein, chains of the INN, looked up)
chain: MTPLGPASSLPQSFLLKCLEQVRKIQGDGAALQEKLCATYKLCHPEELVLLGHSLGIPWAPLSSCPSQALQLAGCLSQLHSGLFLYQGLLQALEGISPELGPTLDTLQLDVADFATTIWQQMEELGMAPALQPTQGAMPAFASAFQRRAGGVLVASHLQSFLEVSYRVLRHLAQP
modifications: N-terminal methionine, non-glycosylated
notes: protein stimulating granulocyte and macrophage proliferation and differentiation
serious reactions [10]: splenic rupture, ARDS, thrombocytopenia, cutaneous vasculitis, and hemorrhage
